Data on three compounds can be found in patent US12616674B2, “Anti-fibrotic NEU3 inhibitor compounds and methods of use” (The Texas A&M University System, priority 2019, dated 2026).

For experiment [1], the target named is T1, recombinant human sialidase NEU3 (Homo sapiens, UniProt Q9UQ49).
T1 construct: purchased Origene TP316537
T1 sequence (Q9UQ49 1-428): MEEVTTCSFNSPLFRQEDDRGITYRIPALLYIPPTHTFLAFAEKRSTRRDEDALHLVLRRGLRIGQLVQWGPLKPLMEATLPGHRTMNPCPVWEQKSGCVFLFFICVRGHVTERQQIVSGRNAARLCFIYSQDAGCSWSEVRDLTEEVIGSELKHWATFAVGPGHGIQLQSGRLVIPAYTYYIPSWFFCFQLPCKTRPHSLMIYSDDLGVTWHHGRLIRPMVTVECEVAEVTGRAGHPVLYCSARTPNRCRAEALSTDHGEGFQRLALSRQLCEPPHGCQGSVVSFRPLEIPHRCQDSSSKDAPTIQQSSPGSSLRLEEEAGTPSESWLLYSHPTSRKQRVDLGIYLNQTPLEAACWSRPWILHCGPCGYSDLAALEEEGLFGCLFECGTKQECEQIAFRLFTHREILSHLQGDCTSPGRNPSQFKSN
Kind of experiment: NEU3-catalyzed L-TGF-β1 activation (TGF-β1 release/concentration assay, active TGF-β1 ELISA). The class given is biochemical. The conditions noted are these: recombinant human NEU3, L-TGF-β1, PBS pH 6.9, 2 hours 37° C.; read-out: IC50, inhibits human NEU3 in the TGF-β1 concentration assay. As for the experimental part: To determine if NEU3 can cause latent transforming growth factor-β1 (L-TGF-β1) to release active TGF-β1, 200 ng/ml recombinant human L-TGF-β1 (299-LT/CF, R&D Systems) was incubated with varying concentrations of recombinant human NEU3 (TP316537, Origene) in a total volume of 100 μl of PBS pH 6.9 in a 96-well microplate (651261, Greiner Bio-one, Monroe, NC). The microplates were covered with aluminum foil and incubated at 37° C. for 2 hours. Following incubation, the reaction mixtures were assayed using a TGF-β1 ELISA kit (DY240, R&D Systems) following the manufacturer's protocol with the exception that the reaction mixtures were not processed for acid treatment, so as to measure only active TGF-β1 and not total TGF-β1. The absorbance was read with a SynergyMX plate reader (BioTek, Winooski, VT).
To determine the ability of compounds 1-31 to inhibit human recombinant NEU3 in-vitro, compounds were dissolved in 5 ml water to 20 mM in 15 ml tubes (89039-664, VWR, Radnor, PA), with the exception that 4-hydroxypyridine-2-carboxylic acid, nicotinic acid, and 4-aminopicolinic acid were dissolved in 50 μl DMSO to 2 M, and this was then added to 4.95 ml of water to make a 20 mM stock, and O-(tetrahydro-2H-pyran-2yl) hydroxylamine and salicylic acid were dissolved in 50 μl methanol to 2 M, and this was then added to 4.95 ml of water to make a 20 mM stock. All stocks were stored at 4° C. and used within 2 weeks of preparation. A 10-fold dilution series of the compounds starting at 2 mM were made in PBS pH 6.9 in 1.7 ml clear microtubes (22-281, Genesee Scientific). 100 μl of diluted compound was added to the well of a 96 well plate and then 50 μl of 400 ng/ml recombinant human sialidase NEU3 (TP316537, Origene) in PBS pH 6.9 was added to each well (50 μl PBS pH 6.9 for the control), and the plate was incubated for 30 minutes at 37° C. 50 μl of 800 ng/ml L-TGF-β1 (299-LT/CF, R&D Systems) in PBS pH 6.9 was then added to the well. The plate was covered with aluminum foil and incubated for 2 hours at 37° C., and released active TGF-β1 was assayed as described above.

The test system of experiment [2] is NEU3-induced IL-6 production by human PBMC. The experiment is described as follows: NEU3-induced extracellular IL-6 accumulation by human PBMC (IL-6 concentration assay). The following applies: NEU3, serum-free medium, 48 hours. The class given is cell-based. As to the method:
Human peripheral blood was collected from healthy volunteers who gave written consent and with specific approval from the Texas A&M University human subjects review board. Peripheral blood mononuclear cells (PBMC) were isolated from the blood using Ficoll-Paque density gradient centrifugation (95021-205, GE Healthcare, Cincinnati, OH) following the manufacture's protocol. PBMC were cultured at […] in 96-well flat bottom tissue culture plates (type 62406-081; […] Louis, MO)) in a final volume of 200 μl per well. […] The sialidases were diluted in 100 μl of the same medium the cells were in, and added to 100 μl of cells at 1×10^5 cells/ml to make the total volume in a well 200 μl with 1×10^4 cells/well. The cells were then incubated at 37° C. in a humidified incubator with 5% CO2. The culture supernatants were collected after two or five days and assayed using an IL-6 ELISA kit (430501, Biolegend, San Diego, CA) following the manufacturer's protocol, reading absorbance with a SynergyMX plate reader (BioTek, Winooski, VT). Statistics were analyzed using Prism software (Graphpad, La Jolla, CA). At least three different donors were used for each assay. […] IL-6 in the culture supernatant was then assayed as described above. At least three different donors were used for each assay.

On to `CC(=O)c1ccccn1` [Compound 5, 2-acetylpyridine], for which the IC50 came out at 42 nM in experiment [1] and 32000 nM in experiment [2].

In the case of `COC(=O)c1ccccn1` [Compound 6, methyl picolinate], the IC50 was 0.014 nM in experiment [1] and above 100000 nM in experiment [2].

Regarding `CN1CCC(N)CC1C(=O)O` (stereo not drawn) [Compound 26, 2-piperidinecarboxylic acid, 4-amino-1-methyl], the values for the IC50 in experiment [1] and in experiment [2] were below 0.01 nM and 0.01 nM, respectively.
